Here are results for 27 molecules from US11286243B2 (GLOBAL BLOOD THERAPEUTICS, INC., priority 2018, dated 2022).

SMILES strings stand for the structures.

The experiment addresses T1, human ferroportin (Homo sapiens, UniProt Q9NP59).
T1 construct: luciferase reporter (probably NanoLuc: read with the Nano-Glo Luciferase Assay System); expressed in transfected cells; host or cells: CHO cells, stably transfected, doxycycline-inducible expression
T1 sequence (Q9NP59 1-571): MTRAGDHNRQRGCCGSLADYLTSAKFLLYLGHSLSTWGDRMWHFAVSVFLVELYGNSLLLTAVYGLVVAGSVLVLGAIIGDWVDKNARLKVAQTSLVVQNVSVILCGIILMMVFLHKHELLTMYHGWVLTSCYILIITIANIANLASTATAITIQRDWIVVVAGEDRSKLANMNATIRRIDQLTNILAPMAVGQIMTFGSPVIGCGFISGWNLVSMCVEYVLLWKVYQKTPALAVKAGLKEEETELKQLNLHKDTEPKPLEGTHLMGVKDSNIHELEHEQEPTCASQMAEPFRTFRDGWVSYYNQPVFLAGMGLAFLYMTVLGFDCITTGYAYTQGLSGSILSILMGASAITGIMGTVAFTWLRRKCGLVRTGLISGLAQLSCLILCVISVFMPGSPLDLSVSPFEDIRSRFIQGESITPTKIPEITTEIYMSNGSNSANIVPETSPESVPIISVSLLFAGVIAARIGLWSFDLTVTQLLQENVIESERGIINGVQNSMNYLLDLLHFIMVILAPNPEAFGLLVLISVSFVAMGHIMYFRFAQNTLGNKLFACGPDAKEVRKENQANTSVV
In words: In-vitro ferroportin internalization assay (luciferase reporter). It counts as cell-based. The following applies: average pEC50; stably-transfected CHO cell line expressing human ferroportin tagged to a luciferase reporter; 6 h incubation with test compounds. On the procedure: The protocol for this assay is generally as described in WO2018/128828, incorporated herein by reference in its entirety. Functional internalization of ferroportin protein was measured using a stably-transfected CHO cell line expressing the human ferroportin tagged to a luciferase reporter. Cells were plated for 24 h in the presence of ferric ammonium citrate (FAC). Ferroportin protein expression was induced with doxycycline for 24 h. The next day, the compounds were added. Test compounds were dissolved in DMSO. Cells were incubated with the test compounds for 6 h, and subsequently luciferase activity was measured using the Nano-Glo Luciferase Assay System and Glomax (Promega, Madison, Wis.).
The average pEC50 was determined for the test compounds.
On the technique in general: In a reporter assay the amount or activity of a reporter protein is the signal.
Regarding `C[C@H](CNCCc1nc2c(NCc3ncccc3F)ncnc2s1)c1nc2ccccc2[nH]1` [Compound 52, 2-(2-{[(2R)-2-(1H-1,3-benzodiazol-2-yl)propyl]amino}ethyl)-N-[(3-fluoropyridin-2-yl)methyl]-[1,3]thiazolo[5,4-d]pyrimidin-7-amine], the pEC50 (in general, the negative decadic logarithm of the EC50, by convention in mol/L) amounted to 6.6.
The result for `C[C@@H](CNCCc1nc2c(NCc3ncccc3F)ncnc2s1)c1nc2ccccc2[nH]1` [Compound 53, 2-(2-{[(2S)-2-(1H-1,3-benzodiazol-2-yl)propyl]amino}ethyl)-N-[(3-fluoropyridin-2-yl)methyl]-[1,3]thiazolo[5,4-d]pyrimidin-7-amine] reads 7.3; that for `Oc1cccc(CNCCc2nc3c(NCc4ncccc4F)nccc3o2)c1` [Compound 54, 3-({[2-(4-{[(3-fluoropyridin-2-yl)methyl]amino}-[1,3]oxazolo[4,5-c]pyridin-2-yl)ethyl]amino}methyl)phenol], 5.1; that for `Cc1nc(CCNCCc2nc3c(NCc4ncccc4F)ncnc3s2)[nH]c1C` [Compound 55, 2-(2-{[2-(4,5-dimethyl-1H-imidazol-2-yl)ethyl]amino}ethyl)-N-[(3-fluoropyridin-2-yl)methyl]-[1,3]thiazolo[5,4-d]pyrimidin-7-amine], 7.6.
The value for `Cc1cnc(CCNCCc2nc3c(NCc4ncccc4F)nccc3o2)[nH]1` [Compound 56, N-[(3-fluoropyridin-2-yl)methyl]-2-(2-{[2-(5-methyl-1H-imidazol-2-yl)ethyl]amino}ethyl)-[1,3]oxazolo[4,5-c]pyridin-4-amine] was 6.7; that for `Fc1cccnc1CNc1nccc2oc(CCNCCc3ncc(C(F)(F)F)[nH]3)nc12` [Compound 57, N-[(3-fluoropyridin-2-yl)methyl]-2-[2-({2-[5-(trifluoromethyl)-1H-imidazol-2-yl]ethyl}amino)ethyl]-[1,3]oxazolo[4,5-c]pyridin-4-amine] was 5.4; that for `Fc1cccnc1CNc1nccc2oc(CCNCCc3ncc[nH]3)nc12` [Compound 58] was 5.7.
The result for `Oc1cc2oc(CCNCCc3nc4ccccc4[nH]3)nc2c(NCc2ncccc2F)n1` [Compound 59, 2-(2-{[2-(1H-1,3-benzodiazol-2-yl)ethyl]amino}ethyl)-4-{[(3-fluoropyridin-2-yl)methyl]amino}-[1,3]oxazolo[4,5-c]pyridin-6-ol] reads 6.2; that for `Fc1cccnc1CNc1ncnc2sc(CCNCCc3ncc(-c4cccnc4)[nH]3)nc12` [Compound 60, N-[(3-fluoropyridin-2-yl)methyl]-2-[2-({2-[5-(pyridin-3-yl)-1H-imidazol-2-yl]ethyl}amino)ethyl]-[1,3]thiazolo[5,4-d]pyrimidin-7-amine], 5.8.
With `CC(CNCCc1nc2c(NCc3ncccc3F)nccc2o1)c1nc2ccccc2[nH]1` (stereo not drawn) [Compound 61, 2-(2-{[2-(1H-1,3-benzodiazol-2-yl)propyl]amino}ethyl)-N-[(3-fluoropyridin-2-yl)methyl]-[1,3]oxazolo[4,5-c]pyridin-4-amine], the pEC50 worked out at 6.9.
`Fc1cccnc1CNc1nccc2oc(CCNCCc3ncc(Cc4ccccc4)[nH]3)nc12` [Compound 62]: the pEC50 came to 7.7.
The value for `Fc1cccnc1CNc1nccc2oc(CCNCCc3ncc(CC4CC4)[nH]3)nc12` [Compound 63, 2-[2-({2-[5-(cyclopropylmethyl)-1H-imidazol-2-yl]ethyl}amino)ethyl]-N-[(3-fluoropyridin-2-yl)methyl]-[1,3]oxazolo[4,5-c]pyridin-4-amine] was 5.1.
The value for `Cc1nc(CCNCCc2nc3c(NCc4ncccc4F)ncnc3s2)[nH]c1-c1ccccc1` [Compound 64, N-[(3-fluoropyridin-2-yl)methyl]-2-(2-{[2-(4-methyl-5-phenyl-1H-imidazol-2-yl)ethyl]amino}ethyl)-[1,3]thiazolo[5,4-d]pyrimidin-7-amine] was 7.
`Fc1cccnc1CNc1ncnc2sc(CCNCCc3ncc(-c4ccccn4)[nH]3)nc12` [Compound 65, N-[(3-fluoropyridin-2-yl)methyl]-2-[2-({2-[5-(pyridin-2-yl)-1H-imidazol-2-yl]ethyl}amino)ethyl]-[1,3]thiazolo[5,4-d]pyrimidin-7-amine] registered a pEC50 of 6.2.
The result for `Fc1cccc(-c2cnc(CCNCCc3nc4c(NCc5ncccc5F)ncnc4s3)[nH]2)c1` [Compound 67, 2-[2-({2-[5-(3-fluorophenyl)-1H-imidazol-2-yl]ethyl}amino)ethyl]-N-[(3-fluoropyridin-2-yl)methyl]-[1,3]thiazolo[5,4-d]pyrimidin-7-amine] reads 6.2; that for `Fc1ccc(-c2cnc(CCNCCc3nc4c(NCc5ncccc5F)ncnc4s3)[nH]2)cc1` [Compound 68, 2-[2-({2-[5-(4-fluorophenyl)-1H-imidazol-2-yl]ethyl}amino)ethyl]-N-[(3-fluoropyridin-2-yl)methyl]-[1,3]thiazolo[5,4-d]pyrimidin-7-amine], 5.8; that for `Cc1ncc(-c2cc(CNCCc3nc4c(NCc5ncccc5F)ncnc4s3)c(Cl)s2)[nH]1` [Compound 69, 2-[2-({[2-chloro-5-(2-methyl-1H-imidazol-5-yl)thiophen-3-yl]methyl}amino)ethyl]-N-[(3-fluoropyridin-2-yl)methyl]-[1,3]thiazolo[5,4-d]pyrimidin-7-amine], 5.2.
Regarding `Cc1nc(-c2ccc(Cl)s2)c(CNCCc2nc3c(NCc4ncccc4F)ncnc3s2)[nH]1` [Compound 70, 2-[2-({[4-(5-chlorothiophen-2-yl)-2-methyl-1H-imidazol-5-yl]methyl}amino)ethyl]-N-[(3-fluoropyridin-2-yl)methyl]-[1,3]thiazolo[5,4-d]pyrimidin-7-amine], the negative-log EC50 (pEC50) came to 5.6.
The result for `Fc1cccnc1CNc1ncnc2sc(CC3CCCC(Cc4nc5ccccc5[nH]4)N3)nc12` (stereo not drawn) [Compound 71, 2-({6-[(1H-1,3-benzodiazol-2-yl)methyl]piperidin-2-yl}methyl)-N-[(3-fluoropyridin-2-yl)methyl]-[1,3]thiazolo[5,4-d]pyrimidin-7-amine] reads 5.2; that for `Fc1cccnc1CNc1ncnc2sc(CCNCCc3ncc(-c4ccc(Cl)s4)[nH]3)nc12` [Compound 72, 2-[2-({2-[5-(5-chlorothiophen-2-yl)-1H-imidazol-2-yl]ethyl}amino)ethyl]-N-[(3-fluoropyridin-2-yl)methyl]-[1,3]thiazolo[5,4-d]pyrimidin-7-amine], 6.4.
The value for `Cc1nc(CCNCCc2nc3c(NCc4ncccc4F)nccc3s2)[nH]c1C` [Compound 73, 2-(2-{[2-(4,5-dimethyl-1H-imidazol-2-yl)ethyl]amino}ethyl)-N-[(3-fluoropyridin-2-yl)methyl]-[1,3]thiazolo[4,5-c]pyridin-4-amine] was 7.6.
In turn, `Fc1cccnc1CNc1nccc2oc([C@H](F)CNCCc3nc4ccccc4[nH]3)nc12` [Compound 74, 2-[(1R)-2-{[2-(1H-1,3-benzodiazol-2-yl)ethyl]amino}-1-fluoroethyl]-N-[(3-fluoropyridin-2-yl)methyl]-[1,3]oxazolo[4,5-c]pyridin-4-amine] displayed a negative logarithm of the EC50 (pEC50) of 6.9.
As for `Fc1cccnc1CNc1nccc2oc([C@@H](F)CNCCc3nc4ccccc4[nH]3)nc12` [Compound 75, 2-[(1 S)-2-{[2-(1H-1,3-benzodiazol-2-yl)ethyl]amino}-1-fluoroethyl]-N-[(3-fluoropyridin-2-yl)methyl]-[1,3]oxazolo[4,5-c]pyridin-4-amine], the pEC50 stood at 7.1.
The result for `Cc1nc(CCNCCc2nc3c(NCc4ncccc4F)nc(O)nc3s2)[nH]c1C` [Compound 76, 2-(2-{[2-(4,5-dimethyl-1H-imidazol-2-yl)ethyl]amino}ethyl)-7-{[(3-fluoropyridin-2-yl)methyl]amino}-[1,3]thiazolo[5,4-d]pyrimidin-5-ol] reads 8.1.
`Fc1cccnc1CNc1ncnc2sc([C@H](F)CNCCc3nc4ccccc4[nH]3)nc12` [Compound 77, 2-[(1R)-2-{[2-(1H-1,3-benzodiazol-2-yl)ethyl]amino}-1-fluoroethyl]-N-[(3-fluoropyridin-2-yl)methyl]-[1,3]thiazolo[5,4-d]pyrimidin-7-amine] showed a pEC50 of 7.8.
Regarding `Cc1nc(Cc2ccccc2)c(CNCCc2nc3c(NCc4ncccc4F)nccc3o2)[nH]1` [Compound 78, 2-(2-{[(4-benzyl-2-methyl-1H-imidazol-5-yl)methyl]amino}ethyl)-N-[(3-fluoropyridin-2-yl)methyl]-[1,3]oxazolo[4,5-c]pyridin-4-amine], the negative logarithm of the EC50 (pEC50) is under 5.
The result for `Fc1cccnc1CNc1ncnc2sc(CCNCCc3ncc(-c4ccncc4)[nH]3)nc12` [Compound 79, N-[(3-fluoropyridin-2-yl)methyl]-2-[2-({2-[5-(pyridin-4-yl)-1H-imidazol-2-yl]ethyl}amino)ethyl]-[1,3]thiazolo[5,4-d]pyrimidin-7-amine] reads under 5.
